According to patent US11236122B2, “Triterpene amine derivatives” (DFH THERAPEUTICS, priority 2018, dated 2022):
Counter-ions that a name gives are not always drawn.

Experiments:
pNL4-3 SP1-V7A = experiment: CA-SP1 accumulation assay, SP1-V7A derivative; type: cell-based, HIV-1; conditions: HeLa or 293T cells; for % CA-SP1 Accumulation 10 nM SP1 V7A: 10 nM compound; for % CA-SP1 Accumulation 100 nM SP1 V7A: 100 nM compound
Description: (§1) Cell culture, plasmids and transfections. The MT-4 T-cell line was maintained in RPMI-1640 medium supplemented with 10% (vol/vol) fetal bovine serum (FBS), 2 mM glutamine, 100 U/mL penicillin and 100 μg/mL streptomycin at 37° C. in a humidified 5% CO2 atmosphere. HeLa and 293T cells were maintained in Dulbecco's modified Eagle's medium (DMEM) supplemented with 5% (vol/vol) FBS, 2 mM glutamine, 100 U/mL penicillin and 100 μg/mL streptomycin. Molecular clones used in this study were WT pNL4-3 and the derivative encoding a Val-to-Ala mutation at SP1 residue 7, referred to as SP1-V7A. The MT-4 T-cell line was transfected the DEAE/dextran procedure; HeLa and 293T cells were transfected with linear polyethylenimine (L-PEI) or Lipofectamine 2000 (Invitrogen) as recommended by the supplier.
(§2) CA-SP1 accumulation assay. For CA-SP1 accumulation assays, HeLa or 293T cells were transfected with WT pNL4-3 or the SP1-V7A derivative. At 24 h post-transfection, cells were starved in Met/Cys-free medium for 30 min and metabolically labeled with [^35S]Met/Cys-Pro-mix (Amersham) for 2-3 h. Maturation inhibitors were maintained in the cultures throughout the transfection and labeling period. Viruses were collected by ultracentrifugation at 99,000×g for 45-60 min. Virus pellets were resuspended in Triton X-100 lysis buffer [300 mM NaCl, 50 mM Tris-HCl (pH 7.5), 0.5% Triton X-100, 10 mM iodoacetamide, and protease inhibitor cocktail tablets (Roche)]. CA and CA-SP1 proteins were separated on 13.5-15% polyacrylamide gels by SDS-polyacrylamide gel electrophoresis, exposed to a phosphorimager plate (Fuji) and quantified by Quantity One software (Bio-Rad).

WT pNL4-3 = experiment: CA-SP1 accumulation assay, WT NL4-3; type: cell-based, HIV-1; conditions: HeLa or 293T cells; for % CA-SP1 Accumulation 10 nM NL4-3: 10 nM compound; for % CA-SP1 Accumulation 100 nM NL4-3: 100 nM compound
Description: as §1, §2

| SMILES | % CA-SP1 Accumulation 10 nM SP1 V7A (pNL4-3 SP1-V7A) | % CA-SP1 Accumulation 100 nM SP1 V7A (pNL4-3 SP1-V7A) | % CA-SP1 Accumulation 10 nM NL4-3 (WT pNL4-3) | % CA-SP1 Accumulation 100 nM NL4-3 (WT pNL4-3) |
| --- | --- | --- | --- | --- |
| C=C(C)[C@@H]1CC[C@]2(CNCCN3CCS(=O)(=O)CC3)CC[C@]3(C)[C@H](CC[C@@H]4[C@@]5(C)CC[C@H](OC(=O)CC(C)(C)C(=O)O)C(C)(C)[C@@H]5CC[C@]43C)[C@@H]12 [Compound 51y, (3β)-28-[[2-[(1,1-Dioxothiomorpholin-4-yl)]ethyl]amino]lup-20(29)-en-3-ol, 3-(1-Hydrogen 2,2-Dimethylbutanedioate) Sulfate] | 28.5% | 28.1% | 56.4% | 69.4% |
| C=C(C)[C@@H]1CC[C@]2(CCNCCCN3CCN(S(C)(=O)=O)CC3)CC[C@]3(C)[C@H](CC[C@@H]4[C@@]5(C)CC[C@H](OC(=O)CC(C)(C)CC(=O)O)C(C)(C)[C@@H]5CC[C@]43C)[C@@H]12 [Compound 51c, (3β)-17-[2-[[3-[4-(Methylsulfonyl)piperazin-1-yl]propyl]amino]ethyl]-28-norlup-20(29)-en-3-ol, 3-(Hydrogen 3,3-Dimethylpentanedioate)] |  | 29.2 (3) % |  | 72.9 (3) % |
| C=C(C)[C@@H]1CC[C@]2(CCNCCN3CCN(c4ccccc4)CC3)CC[C@]3(C)[C@H](CC[C@@H]4[C@@]5(C)CC[C@H](OC(=O)CC(C)(C)C(=O)O)C(C)(C)[C@@H]5CC[C@]43C)[C@@H]12 [Compound 51p, (3β)-17-[2-[[2-(4-Phenylpiperazin-1-yl)ethyl]amino]ethyl]-28-norlup-20(29)-en-3-ol, 3-(1-Hydrogen 2,2-Dimethylbutanedioate)] | 22.5% |  | 60.0% |  |
| C=C(C)[C@@H]1CC[C@]2(CCNCCN3CCN(Cc4ccc5ccccc5n4)CC3)CC[C@]3(C)[C@H](CC[C@@H]4[C@@]5(C)CC[C@H](OC(=O)CC(C)(C)C(=O)O)C(C)(C)[C@@H]5CC[C@]43C)[C@@H]12 [Compound 51t, (3β)-17-[2-[[2-[4-(2-Quinolinylmethyl)piperazin-1-yl]ethyl]amino]ethyl]-28-norlup-20(29)-en-3-ol, 3-(1-Hydrogen 2,2-Dimethylbutanedioate)] | 18.6% |  | 56.1% |  |
| C=C(C)[C@@H]1CC[C@]2(CCNCCN3CCN(CC4CCCCC4)CC3)CC[C@]3(C)[C@H](CC[C@@H]4[C@@]5(C)CC[C@H](OC(=O)CC(C)(C)C(=O)O)C(C)(C)[C@@H]5CC[C@]43C)[C@@H]12 [Compound 51s, (3β)-17-[2-[[2-[4-(Cyclohexylmethyl)piperazin-1-yl]ethyl]amino]ethyl]-28-norlup-20(29)-en-3-ol, 3-(1-Hydrogen 2,2-Dimethylbutanedioate)] | 14.5% |  | 48.7% |  |
| C=C(C)[C@@H]1CC[C@]2(CCCNCCN3CCN(S(C)(=O)=O)CC3)CC[C@]3(C)[C@H](CC[C@@H]4[C@@]5(C)CC[C@H](OC(=O)CC(C)(C)C(=O)O)C(C)(C)[C@@H]5CC[C@]43C)[C@@H]12 [Compound 51cc, (3β)-17-[3-[[2-[4-(Methylsulfonyl)piperazin-1-yl]ethyl]amino]propyl]-28-norlup-20(29)-en-3-ol, 3-(1-Hydrogen 2,2-Dimethylbutanedioate) Sesquisulfate] | 12.5% | 19.3% | 26.0% | 58.4% |
| C=C(C)[C@@H]1CC[C@]2(CNCCCN3CCCC3)CC[C@]3(C)[C@H](CC[C@@H]4[C@@]5(C)CC[C@H](OC(=O)CC(C)(C)C(=O)O)C(C)(C)[C@@H]5CC[C@]43C)[C@@H]12 [Compound 51v, (3β)-28-[[3-(1-Pyrrolidinyl)propyl]amino]lup-20(29)-en-3-ol, 3-(1-Hydrogen 2,2-Dimethylbutanedioate) Sulfate] | 10.3% | 26.9% | 21.9% | 57.2% |
| C=C(C)[C@@H]1CC[C@]2(CCNCCCN3CCCC3=O)CC[C@]3(C)[C@H](CC[C@@H]4[C@@]5(C)CC[C@H](OC(=O)CC(C)(C)CC(=O)O)C(C)(C)[C@@H]5CC[C@]43C)[C@@H]12 [Compound 51a, (3β)-17-[2-[[3-(2-Oxopyrrolidin-1-yl)propyl]amino]ethyl]-28-norlup-20(29)-en-3-ol, 3-(Hydrogen 3,3-Dimethylpentanedioate)] |  | 18.0% |  | 62.0% |
| C=C(C)[C@@H]1CC[C@]2(CCCNCCN3CCN(Cc4ccccc4)CC3)CC[C@]3(C)[C@H](CC[C@@H]4[C@@]5(C)CC[C@H](OC(=O)CC(C)(C)C(=O)O)C(C)(C)[C@@H]5CC[C@]43C)[C@@H]12 [Compound 51bb, (3β)-17-[3-[[2-[4-(Phenylmethyl)piperazin-1-yl]ethyl]amino]propyl]-28-norlup-20(29)-en-3-ol, 3-(1-Hydrogen 2,2-Dimethylbutanedioate) Sesquisulfate] | 4.8% | 3.7% | 5.8% | 8.4% |
| CN(C)CCCCNCC[C@]12CC[C@@H](C3(C)CC3)[C@@H]1[C@H]1CC[C@@H]3[C@@]4(C)CC[C@H](OC(=O)CC(C)(C)C(=O)O)C(C)(C)[C@@H]4CC[C@@]3(C)[C@]1(C)CC2 [Compound 51j, (3β)-17-[2-[[(4-Dimethylamino)butyl]amino]ethyl]-20,29-methano-28-norlupan-3-ol, 3-(1-Hydrogen 2,2-Dimethylbutanedioate)] |  | 6.4% |  | 53.6% |
